Consider one compound from US20200371122A1, “BIOMARKER FOR SENESCENT CELLS” (Buck Institute for Research on Aging, priority 2017, published 2020).

In one assay the test system is IL-6 secretion. The assay is described as follows: IL-6 ELISA on non-senescent cells treated with prostaglandins. Type of assay: cell-based, human. Conditions: 10 μM, 10 days. The method, then:
Human fetal lung fibroblasts (IMR-90) were cultured in Dulbecco's modified eagle medium (DMEM) supplemented with 10% FBS and penicillin/streptomycin. LL 29 (AnHa) cells were obtained from the ATCC and growth to confluence using the ATCC protocol, but were subcultured as described for IMR-90 before initiation of all experiments. Quiescence was induced by replacing culture media with media containing 0.2% FBS. MCF-7 and MDA-MB-231 breast cancer cells were cultured in RPMI supplemented with 10% FBS and penicillin/streptomycin. All cells were cultured at 3% O2, and used between 25 and 40 population doublings. All cells were mycoplasma free.
3×10^4 cells in 12-well plates were treated as indicated in the text, and cultured in 0.5-1 ml serum-free DMEM for 24 hr. CM were collected and clarified at 2,000×g for 10 min. Supernatants were transferred to a tube; cells were trypsinized and counted. CM (2.5 μl) were analyzed by bead-based ELISAs (AlphaLISA, Perkin-Elmer) as instructed by the manufacturer and normalized to cell number.

Another assay has as its system IMR-90 fibroblasts. As to the kind of experiment: Induction of senescence in non-senescent cells by prostaglandins or 5-LOX pathway products (EdU, SA-B-gal, p21, immunoblot). The assay is classed as cell-based, human. The method, then:
RNA was extracted from cells or tissues using commercially available kits (Isolate II—Bioline for cells; Direct-zol—Zymo for tissues) according to the manufacturer's instructions. cDNA synthesis was performed using a High Capacity cDNA Reverse Transcription Kit (Thermo Fisher) according to the manufacturer's instructions. Quantitative PCR was performed on a LightCycler 480 II (Roche) using primers and probes designed for the Universal Probe Library. Primers and probes used for human transcripts were ACTB: 5′-CCAACCGCGAGAAGATGA (SEQ ID NO:1), 5′-TCCATCACGATGCCAGTG (SEQ ID NO:2), Probe #64; TUBA: 5′-cttcgtctccgccatcag (SEQ ID NO:3), 5′-ttgccaatctggacacca (SEQ ID NO:4), Probe #58; ALOX5: 5′-[…] (SEQ ID NO:5), 5′-[…] (SEQ ID NO:6), Probe #64; ALOX5AP: 5′-ggtctgcggggctacttt (SEQ ID NO:7), 5′-[…] (SEQ ID NO:8), Probe #18; ALOX12: 5′-[…] (SEQ ID NO:9), 5′-agccaggtcgtcaggag (SEQ ID NO:10), Probe #32; ALOX15: 5′-[…] (SEQ ID NO:11), 5′-[…] (SEQ ID NO:12), Probe #76; ALOX15B: 5′-[…] (SEQ ID NO:13), 5′-actgggaggcgaagaagg (SEQ ID NO:14), Probe #51; AKR1C1: 5′-catgcctgtcctgggattt (SEQ ID NO:15), 5′-[…] (SEQ ID NO:16), Probe #49; AKR1C2: 5′-ctatgcgcctgcagaggt (SEQ ID NO:17), 5′-[…] (SEQ ID NO:18), Probe #31; AKR1C3: 5′-[…] (SEQ ID NO:19), 5′-[…] (SEQ ID NO:20), Probe #78; CYSLTR2: 5′-[…] (SEQ ID NO:21), 5′-[…] (SEQ ID NO:22), Probe #18; DPEP1: 5′-gacgtcctgaggctggtg (SEQ ID NO:23), 5′-[…] (SEQ ID NO:24), Probe #9 (SEQ ID NO:25), ELOVL2: 5′-[…] (SEQ ID NO:26), 5′-[…] (SEQ ID NO:27), Probe #53; ELOVL4: 5′-catttggcccatggattc (SEQ ID NO:28), 5′-[…] (SEQ ID NO:29), Probe #31; ELOVL5: 5′-cccttccatgcgtccata (SEQ ID NO:30), 5′-[…] (SEQ ID NO:31), Probe #31; EPHX2: 5′-ttctgctggacaccctgaa (SEQ ID NO:32), 5′-[…] (SEQ ID NO:33), Probe #45; GPX4: 5′-ttcccgtgtaaccagttcg (SEQ ID NO:34), 5′-[…] (SEQ ID NO:35), Probe #36; LTA4H: 5′-ctgctctcacggtccagtc (SEQ ID NO:36), 5′-[…] (SEQ ID NO:37), Probe #64; LTBR2: 5′-[…] (SEQ ID NO:38), 5′-[…] (SEQ ID NO:39), Probe #33; LTC4S: 5′-[…] (SEQ ID NO:40), 5′-[…] (SEQ ID NO:41), Probe #18; PTGDS: 5′-[…] (SEQ ID NO:42), 5′-[…] (SEQ ID NO:43), Probe #36; PTGES: 5′-agagatgcctgcccacag (SEQ ID NO:44), 5′-tggccaccacgtacatctt (SEQ ID NO:45), Probe #4; PTGES2: 5′-[…] (SEQ ID NO:46), 5′-[…] (SEQ ID NO:47), Probe #49; PTGES3 (SEQ ID NO:48), 5′-[…] (SEQ ID NO:49), 5′-[…] (SEQ ID NO:50), Probe #48; PTGIS: 5′-[…] (SEQ ID NO:51), 5′-[…] (SEQ ID NO:52), Probe #45; PTGR1: 5′-atgatggggcagcaagtg (SEQ ID NO:53), 5′-cccatcagaaatggagtgc (SEQ ID NO:54), Probe #64; PTGS1: 5′-[…] (SEQ ID NO:55), 5′-gtggtggtccatgttcctg (SEQ ID NO:56), Probe #81; PTGS2: 5′-gatccccagggctcaaac (SEQ ID NO:57), 5′-[…] (SEQ ID NO:58), Probe #61; TBXAS1: 5′-[…] (SEQ ID NO:59), 5′-tgcctcccgtgtgaatct (SEQ ID NO:60), Probe #73; AREG: 5′-[…] (SEQ ID NO:61), 5′-[…] (SEQ ID NO:62), Probe #73; CCL2: 5′-AGTCTCTGCCGCCCTTCT (SEQ ID NO:63), 5′-GTGACTGGGGCATTGATTG (SEQ ID NO:64), Probe #40; CCL27: 5′-[…] (SEQ ID NO:65), 5′-gctgggtggcagtaggaat (SEQ ID NO:66), Probe #18; CXCL1: 5′-[…] (SEQ ID NO:67), 5′-[…] (SEQ ID NO:68), Probe #52; HGF: 5′-[…] (SEQ ID NO:69), 5′-[…] (SEQ ID NO:70), Probe #49; ILIA: 5′-[…] (SEQ ID NO:71), 5′-[…] (SEQ ID NO:72), Probe #6; IL1B: 5′-[…] (SEQ ID NO:73), 5′-[…] (SEQ ID NO:74), Probe #78; IL6: 5′-[…] (SEQ ID NO:75), 5′-gaaggcagcaggcaacac (SEQ ID NO:76), Probe #45; IL8: 5′-[…] (SEQ ID NO:77), 5′-atggttccttccggtggt (SEQ ID NO:78), Probe #72; IL10: 5′-[…] (SEQ ID NO:79), 5′-[…] (SEQ ID NO:80), Probe #67; MMP3: 5′-[…] (SEQ ID NO:81), 5′-[…] (SEQ ID NO:82), Probe #36; PDGFA: 5′-[…] (SEQ ID NO:83), 5′-[…] (SEQ ID NO:84), Probe #80; VEGF: 5′-[…] (SEQ ID NO:85), 5′-[…] (SEQ ID NO:86), Probe #50; P21WAF1(CDKN1A): 5′-[…]

Assay [1] relates to IMR-90 fibroblasts depleted of p53 by shRNA. As to the kind of experiment: Prostaglandin treatment of p53-depleted (shp53) IMR-90 fibroblasts (Ki67, cleaved caspase 3). The assay is classed as cell-based, human. Conditions: shp53 cells, 3 days. As to the method: For EdU labeling, cells were cultured with EdU (10 μM) for 24 h, fixed in 4% buffered formalin for 10 min, washed in PBS, and permeabilized in 0.5% Triton X-100 for 30 min. Cells were treated as instructed by the manufacturer Life Technologies Cat #C10337). For immunofluorescence, cells were blocked in 10% normal goat serum for 30 min, washed, and incubated overnight in antibodies to Ki67 (Abcam) or cleaved caspase 3 (Cell Signaling). Cell were then washed, incubated in fluorescent secondary antibodies, and mounted using vectashield mounting medium with DAPI.

Assay [2] concerns bleomycin-induced fibrosis. Particulars: administration; Kida 2016, Genovese 2005; cited from earlier work.

With `CCCCC[C@H](O)/C=C/[C@H]1C(=O)C[C@H](O)[C@@H]1C/C=C\CCCC(=O)O` [PGD2, prostaglandin D2], the IL-6 secretion entry in the assay with IL-6 secretion was “elevated”. In the assay on IMR-90 fibroblasts (10 μM, 10 days), the “levels of LMNB1 and cellular HMGB1” value is recorded as “reduced levels”; the p21 gene expression entry is given as “induced”; the senescence-associated beta-galactosidase entry is listed as “induced”. Moreover, in the assay with IMR-90 fibroblasts (10 μM, 10 days, immunoblot), the p21 protein accumulation entry is “induced” and the p53 stabilization entry is given as “stabilized”. Besides, the “p53 phosphorylation or acetylation” value with IMR-90 fibroblasts (10 μM, 10 days, western blot) was “without increasing”. Further, the “expression of MMP3 and secretion of IL-6 on removal of the prostaglandin” value with IMR-90 fibroblasts (release after 7 days at 10 μM) is given as “reduced”. Also, in assay [1], the “apoptosis (positivity for cleaved caspase 3)” value is recorded as “underwent apoptosis” and the “continued cell division (Ki67 positivity) after loss of p53” value was “did not allow”. Moreover, the bleomycin-induced fibrosis entry in assay [2] is listed as “attenuate”.
